Results: PMC2890073 (Immunogenetics, 2010)
Where no end group is shown, it is not given here.

Columns and labels:
HLA-B*5301 = HLA-B*5301 (Homo sapiens, UniProt P01889, A329T/A93T/A95T/C349S/D201E/D98Y/E176V/E187L/E204Q/E69T/G107R/I218V/K202T/L105A/L119I/N104I/Q94N/R106L/R155S/R180L/S101N/S121R/S35A/S48A/T118I/V127L/V306I/V36M/Y140S/Y91F); assay: HLA-B*5301 peptide binding assay
HLA-B*0702 = HLA-B*0702 (Homo sapiens, UniProt P01889); assay: HLA-B*0702 peptide binding assay
HLA-B*3501 = HLA-B*3501 (Homo sapiens, UniProt P01889, A329T/A93T/A95T/C349S/D201E/D98Y/E176V/E187L/E204Q/E69T/I218V/K202T/L119I/Q94N/R155S/R180L/S121R/S35A/S48A/T118I/V127L/V306I/V36M/Y140S/Y91F); assay: HLA-B*3501 peptide binding assay

CC(C)C[C@H](NC(=O)[C@@H]1CCCN1C(=O)[C@@H](N)Cc1ccc(O)cc1)C(=O)N[C@H](C(=O)N[C@@H](Cc1ccccc1)C(=O)NCC(=O)N[C@@H](Cc1c[nH]c2ccccc12)C(=O)N[C@@H](CS)C(=O)N[C@@H](Cc1ccccc1)C(=O)O)[C@@H](C)O
IC50 (HLA-B*5301): 9.5 nM

CC(C)C[C@H](NC(=O)[C@@H]1CCCN1C(=O)[C@@H](NC(=O)[C@H](CCC(N)=O)NC(=O)[C@@H]1CCCN1C(=O)[C@@H](NC(=O)[C@@H](NC(=O)[C@@H]1CCCN1C(=O)[C@@H](N)Cc1ccccc1)C(C)C)[C@@H](C)O)C(C)C)C(=O)O
IC50 (HLA-B*0702): 1 nM

HPDIVIYQY
IC50 (HLA-B*3501): 7.9 nM
